What was measured:
[1] = target: T1, human GIVA cPLA2 (Homo sapiens, UniProt P47712); test: GIVA cPLA2 specific mixed micelle assay; format: biochemical; settings: 0.091 mole fraction
T1 sequence (P47712 1-749): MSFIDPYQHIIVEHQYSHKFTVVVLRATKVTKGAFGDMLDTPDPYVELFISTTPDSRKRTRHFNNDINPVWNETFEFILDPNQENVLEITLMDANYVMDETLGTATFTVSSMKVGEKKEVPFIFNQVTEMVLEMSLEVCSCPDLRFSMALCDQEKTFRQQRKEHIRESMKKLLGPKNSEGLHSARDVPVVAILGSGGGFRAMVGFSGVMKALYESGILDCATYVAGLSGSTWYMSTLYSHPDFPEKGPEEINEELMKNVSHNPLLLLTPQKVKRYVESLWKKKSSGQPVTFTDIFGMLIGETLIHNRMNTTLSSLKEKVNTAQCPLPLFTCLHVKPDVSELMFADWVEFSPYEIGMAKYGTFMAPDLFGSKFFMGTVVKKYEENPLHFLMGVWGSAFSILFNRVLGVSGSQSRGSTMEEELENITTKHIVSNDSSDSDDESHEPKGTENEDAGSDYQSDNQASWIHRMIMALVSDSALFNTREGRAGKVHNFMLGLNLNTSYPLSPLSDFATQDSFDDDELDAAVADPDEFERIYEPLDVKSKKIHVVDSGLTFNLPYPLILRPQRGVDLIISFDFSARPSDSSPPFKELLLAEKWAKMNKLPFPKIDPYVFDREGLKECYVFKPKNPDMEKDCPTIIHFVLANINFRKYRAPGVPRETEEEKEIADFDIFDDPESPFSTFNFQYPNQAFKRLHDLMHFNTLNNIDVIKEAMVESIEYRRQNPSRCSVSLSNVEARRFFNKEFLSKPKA
Experimental: (§1) Inhibition of phospholipase A2 by perfluoroketone compounds. […] (2002) J. Med. Chem. 45: 2891-2893; Kokotos, G. et al. (2004). J. Med. Chem. 47: 3615-3628). The standard GVIA iPLA2 activity assay utilizes DPPC/Triton™ X-100 mixed micelles at a ratio of 1:4 as previously described (Stephens D. et al. (2006). J. Med. Chem., 49: 2821-2828). GV sPLA2 activity was measured in an assay similar to the assays for GIVA cPLA2 and GVIA iPLA2.

[2] = target: T2, GVIA iPLA2 (Homo sapiens, UniProt O60733); test: standard GVIA iPLA2 activity assay (DPPC/Triton X-100 mixed micelles); format: biochemical; settings: 0.091 mole fraction; mean and standard error, n = 3
T2 sequence (O60733 1-806): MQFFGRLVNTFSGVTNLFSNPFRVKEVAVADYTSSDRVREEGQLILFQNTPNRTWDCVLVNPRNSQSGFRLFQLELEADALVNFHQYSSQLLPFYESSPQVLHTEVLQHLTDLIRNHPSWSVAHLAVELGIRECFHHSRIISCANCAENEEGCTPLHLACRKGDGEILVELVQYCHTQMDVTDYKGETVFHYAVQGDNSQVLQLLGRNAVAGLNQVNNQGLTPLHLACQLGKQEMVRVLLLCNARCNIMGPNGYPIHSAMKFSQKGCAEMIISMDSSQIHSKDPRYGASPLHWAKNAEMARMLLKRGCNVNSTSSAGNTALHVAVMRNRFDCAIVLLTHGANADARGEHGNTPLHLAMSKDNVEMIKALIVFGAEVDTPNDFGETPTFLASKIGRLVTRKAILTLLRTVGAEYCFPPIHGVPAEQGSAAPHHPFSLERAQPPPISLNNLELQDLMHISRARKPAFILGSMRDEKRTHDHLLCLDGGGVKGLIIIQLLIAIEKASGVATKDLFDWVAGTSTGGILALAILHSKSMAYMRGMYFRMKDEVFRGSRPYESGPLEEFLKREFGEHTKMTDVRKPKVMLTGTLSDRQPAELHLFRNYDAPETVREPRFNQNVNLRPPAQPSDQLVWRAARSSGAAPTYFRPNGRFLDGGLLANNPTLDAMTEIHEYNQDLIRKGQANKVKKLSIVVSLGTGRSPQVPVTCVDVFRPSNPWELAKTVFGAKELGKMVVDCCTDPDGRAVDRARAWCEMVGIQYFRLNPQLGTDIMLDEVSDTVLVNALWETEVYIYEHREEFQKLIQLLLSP
Experimental: as §1

Compound: O=C(CCCCc1ccccc1)C(F)(F)C(F)(F)F [FKGK11, 1,1,1,2,2-Pentafluoro-7-phenyl-3-heptanone]
- Average percent inhibition GIVA cPLA2 (class symbol) [1]: N.D. (N.D. means compounds with less than 25% inhibition (or no detectable inhibition))
- Average percent inhibition GVIA iPLA2 [2]: 98 ± 16%

From patent publication US20100048727A1, “PERFLUOROKETONE COMPOUNDS AND USES THEREOF” (priority 2007, published 2010)
